Test results reported in patent publication EP2058315A1, “1H-Furo[3,2-C]Pyrazoles active as aurora kinase inhibitors” (Nerviano Medical Sciences S.r.l., priority 2007, dated 2009).

target: T1, Aurora-2 (Homo sapiens, UniProt O14965); assay: Inhibition assay of Aurora-2 activity (SPA technology); type: biochemical; settings: screened according to the methods of the pharmacology section; read-out: IC50values for Aur2 inhibition
T1 sequence (O14965 1-403): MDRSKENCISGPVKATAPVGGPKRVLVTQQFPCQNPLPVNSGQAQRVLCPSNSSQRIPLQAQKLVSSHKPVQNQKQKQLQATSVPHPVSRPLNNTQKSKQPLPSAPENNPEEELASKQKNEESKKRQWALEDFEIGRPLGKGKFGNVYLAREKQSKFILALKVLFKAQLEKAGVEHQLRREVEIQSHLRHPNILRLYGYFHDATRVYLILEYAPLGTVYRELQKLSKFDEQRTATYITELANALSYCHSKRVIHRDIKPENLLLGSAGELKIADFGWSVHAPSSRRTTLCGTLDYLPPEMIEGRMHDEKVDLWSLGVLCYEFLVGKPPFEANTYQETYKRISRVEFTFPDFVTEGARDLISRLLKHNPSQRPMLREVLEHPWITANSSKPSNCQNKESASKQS
Procedure: The inhibiting activity and the potency of selected compounds is determined through a method of assay based on the use of the SPA technology (Amersham Pharmacia Biotech).
The assay consists of the transfer of radioactivity labelled phosphate moiety by the kinase to a biotinylated substrate. The resulting 33P-labelled biotinylated product is allowed to bind to streptavidin-coated SPA beads (biotin capacity 130 pmol/mg), and light emitted was measured in a scintillation counter.
Kinase reaction: 8 µM biotinylated peptide (4 repeats of LRRWSLG, commercially available from Sigma, catalogue no. L-3523), 10 µM ATP (0.5 uCi P^33γ-ATP), 7.5 ng Aurora 2, inhibitor in a final volume of 30 µl buffer (HEPES 50 mM pH 7.0, MgCl2 10 mM, 1 mM DTT, 0.2 mg/mL BSA, 3 µM orthovanadate) were added to each well of a 96 U bottom well plate. After 60 minutes at room temperature incubation, the reaction was stopped and biotinylated peptide captured by adding 100 µl of bead suspension.
Stratification: 100 µl of CsCl 5 M were added to each well and stood for 4 hours before radioactivity was counted in the Top-Count instrument.
IC50 determination: inhibitors were tested at different concentrations ranging from 0.0015 to 10 µM. Experimental data were analyzed by the computer program GraphPad Prizm using the four parameter logistic equation: y = bottom+(top-bottom)/(1+10^((logIC50-x)*slope)) where x is the logarithm of the inhibitor concentration, y is the response; y starts at bottom and goes to top with a sigmoid shape. Ki calculation: Experimental method: Reaction was carried out in buffer (10 mM Tris, pH 7.5, 10 mM MgCl2, 0.2 mg/mL BSA, 7.5 mM DTT) containing 3.7 nM enzyme, histone and ATP (constant ratio of cold/labeled ATP 1/3000). The reaction was stopped with EDTA and the substrate captured on phosphomembrane (Multiscreen 96 well plates from Millipore). After extensive washing, the multiscreen plates were read on a top counter. Control (time zero) for each ATP and histone concentrations was measured.

IC50, < 10 nM:
CC(C)(NC(=O)c1cc2[nH]nc(NC(=O)c3ccc(F)cc3)c2o1)c1ccccc1 [Compound 4, 3-[(4-fluorobenzoyl)amino]-N-(1-methyl-1-phenylethyl)-1H-furo[3,2-c]pyrazole-5-carboxamide]
O=C(Nc1n[nH]c2cc(C(=O)NC3(c4ccccc4)CC3)oc12)c1ccc(N2CCOCC2)cc1 [Compound 7, 3-[(4-morpholin-4-ylbenzoyl)amino]-N-(1-phenylcyclopropyl)-1H-furo[3,2-c]pyrazole-5-carboxamide]
CN1CCN(c2ccc(C(=O)Nc3n[nH]c4cc(C(=O)NC(C)(C)c5ccccc5)oc34)cc2)CC1 [Compound 10, N-(1-methyl-1-phenylethyl)-3-{[4-(4-methylpiperazin-1-yl)benzoyl]amino}-1H-furo[3,2-c]pyrazole-5-carboxamide]
COc1ccc(C(=O)Nc2n[nH]c3cc(C(=O)NC(C)(C)c4ccccc4)oc23)cc1 [Compound 18, 3-[(4-methoxybenzoyl)amino]-N-(1-methyl-1-phenylethyl)-1H-furo[3,2-c]pyrazole-5-carboxamide]
CN1CCN(c2ccc(C(=O)Nc3n[nH]c4cc(C(=O)NC(C)(C)c5cccc(Cl)c5)oc34)cc2)CC1 [Compound 26, N-[1-(3-chlorophenyl)-1-methylethyl]-3-{[4-(4-methylpiperazin-1-yl)benzoyl]amino}-1H-furo[3,2-c]pyrazole-5-carboxamide]
CN1CCN(c2ccc(C(=O)Nc3n[nH]c4cc(C(=O)NC5(c6ccccc6)CCCC5)oc34)cc2)CC1 [Compound 27, 3-{[4-(4-methylpiperazin-1-yl)benzoyl]amino}-N-(1-phenylcyclopentyl)-1H-furo[3,2-c]pyrazole-5-carboxamide]
CC(C)(NC(=O)c1cc2[nH]nc(NC(=O)c3ccco3)c2o1)c1ccccc1 [Compound 28, 3-(2-furoylamino)-N-(1-methyl-1-phenylethyl)-1H-furo[3,2-c]pyrazole-5-carboxamide]
CN1CCC(Oc2ccc(C(=O)Nc3n[nH]c4cc(C(=O)NC(C)(C)c5ccccc5)oc34)cc2)CC1 [Compound 30, N-(1-methyl-1-phenylethyl)-3-({4-[(1-methylpiperidin-4-yl)oxy]benzoyl}amino)-1H-furo[3,2-c]pyrazole-5-carboxamide]
CN1CCN(Cc2ccc(C(=O)Nc3n[nH]c4cc(C(=O)NC(C)(C)c5ccccc5)oc34)cc2)CC1 [Compound 31, N-(1-methyl-1-phenylethyl)-3-({4-[(4-methylpiperazin-1-yl)methyl]benzoyl}amino)-1H-furo[3,2-c]pyrazole-5-carboxamide]
CC(C)(NC(=O)c1cc2[nH]nc(NC(=O)c3ccc(CN4CCOCC4)cc3)c2o1)c1ccccc1 [Compound 32, N-(1-methyl-1-phenylethyl)-3-{[4-(morpholin-4-ylmethyl)benzoyl]amino}-1H-furo[3,2-c]pyrazole-5-carboxamide]
Cn1cccc1C(=O)Nc1n[nH]c2cc(C(=O)NC(C)(C)c3ccccc3)oc12 [Compound 33, N-(1-methyl-1-phenylethyl)-3-{[(1-methyl-1H-pyrrol-2-yl)carbonyl]amino}-1H-furo[3,2-c]pyrazole-5-carboxamide]
CC(C)(NC(=O)c1cc2[nH]nc(NC(=O)c3ccc(CN4CCCC4)cc3)c2o1)c1ccccc1 [Compound 34, N-(1-methyl-1-phenylethyl)-3-{[4-(pyrrolidin-1-ylmethyl)benzoyl]amino}-1H-furo[3,2-c]pyrazole-5-carboxamide]
Cc1cc(C(=O)Nc2n[nH]c3cc(C(=O)NC(C)(C)c4ccccc4)oc23)n(C)n1 [Compound 38, 3-{[(1,3-dimethyl-1 H-pyrazol-5-yl)carbonyl]amino}-N-(1-methyl-1-phenylethyl)-1H-furo[3,2-c]pyrazole-5-carboxamide]
CC(C)(NC(=O)c1cc2[nH]nc(NC(=O)c3ccco3)c2o1)c1ccccc1F [Compound 39, N-[1-(2-fluorophenyl)-1-methylethyl]-3-(2-furoylamino)-1H-furo[3,2-c]pyrazole-5-carboxamide]
O=C(Nc1n[nH]c2cc(C(=O)NC3(c4ccccc4)CCCC3)oc12)c1ccco1 [Compound 40, 3-(2-furoylamino)-N-(1-phenylcyclopentyl)-1H-furo[3,2-c]pyrazole-5-carboxamide]
Cc1occc1C(=O)Nc1n[nH]c2cc(C(=O)NC(C)(C)c3ccccc3)oc12 [Compound 41, 3-[(2-methyl-3-furoyl)amino]-N-(1-methyl-1-phenylethyl)-1H-furo[3,2-c]pyrazole-5-carboxamide]
CC(C)(NC(=O)c1cc2[nH]nc(NC(=O)c3ccc(CN4CCC4)cc3)c2o1)c1ccccc1 [Compound 43, 3-{[4-(azetidin-1-ylmethyl)benzoyl]amino}-N-(1-methyl-1-phenylethyl)-1H-furo[3,2-c]pyrazole-5-carboxamide]
Cc1ccsc1C(=O)Nc1n[nH]c2cc(C(=O)NC(C)(C)c3ccccc3)oc12 [Compound 44, N-(1-methyl-1-phenylethyl)-3-{[(3-methyl-2-thienyl)carbonyl]amino}-1H-furo[3,2-c]pyrazole-5-carboxamide]
Cc1ccc(C(=O)Nc2n[nH]c3cc(C(=O)NC(C)(C)c4ccccc4)oc23)s1 [Compound 45, N-(1-methyl-1-phenylethyl)-3-{[(5-methyl-2-thienyl)carbonyl]amino}-1H-furo[3,2-c]pyrazole-5-carboxamide]
Cc1csc(C(=O)Nc2n[nH]c3cc(C(=O)NC(C)(C)c4ccccc4)oc23)c1 [Compound 48, N-(1-methyl-1-phenylethyl)-3-{[(4-methyl-2-thienyl)carbonyl]amino}-1H-furo[3,2-c]pyrazole-5-carboxamide]
Cc1cc(C(=O)Nc2n[nH]c3cc(C(=O)NC(C)(C)c4ccccc4)oc23)c(C)o1 [Compound 50, 3-[(2,5-dimethyl-3-furoyl)amino]-N-(1-methyl-1-phenylethyl)-1H-furo[3,2-c]pyrazole-5-carboxamide]
Cc1ccc(C(=O)Nc2n[nH]c3cc(C(=O)NC(C)(C)c4ccccc4)oc23)o1 [Compound 51, 3-[(5-methyl-2-furoyl)amino]-N-(1-methyl-1-phenylethyl)-1H-furo[3,2-c]pyrazole-5-carboxamide]
Cc1ccoc1C(=O)Nc1n[nH]c2cc(C(=O)NC(C)(C)c3ccccc3)oc12 [Compound 53, 3-[(3-methyl-2-furoyl)amino]-N-(1-methyl-1-phenylethyl)-1H-furo[3,2-c]pyrazole-5-carboxamide]
Cn1nccc1C(=O)Nc1n[nH]c2cc(C(=O)NC(C)(C)c3ccccc3)oc12 [Compound 55, N-(1-methyl-1-phenylethyl)-3-{[(1-methyl-1H-pyrazol-5-yl)carbonyl]amino}-1H-furo[3,2-c]pyrazole-5-carboxamide]
Cn1ccc(C(=O)Nc2n[nH]c3cc(C(=O)NC(C)(C)c4ccccc4)oc23)n1 [Compound 56, N-(1-methyl-1-phenylethyl)-3-{[(1-methyl-1H-pyrazol-3-yl)carbonyl]amino}-1H-furo[3,2-c]pyrazole-5-carboxamide]
